Experimental data from ChEMBL document CHEMBL5137036, “Design and synthesis of highly TRAIL expression HDAC inhibitors based on ONC201 to promote apoptosis of colorectal cancer” (Eur J Med Chem, 2022).
The source made the active and inactive calls. No cut-off for these calls is given here.

Legend:
Histone deacetylase 1 = Histone deacetylase 1 (Homo sapiens, UniProt Q13547); test: Inhibition of HDAC1 in human HCT-116 cells assessed as increase in DR5 protein expression at 0.5 uM incubated for 12 hrs by Western blot analysis; type: cell-based
HCT-116 [1] = test: Antitumor activity against human HCT-116 cells xenografted in BALB/c mouse assessed as reduction in tumor growth at 12.5 mg/kg, po qd administered for 3 weeks and measured every 3 days by vernier caliper analysis; type: functional, organism-based
HCT-116 [2] = test: Effect on ac-H4 protein expression in human HCT-116 cells incubated for 12 hrs by Western blot analysis; type: functional, cell-based; details: dose 0.125-0.5 µM, DDE = dose-dependent effect
Histone deacetylase 2 = Histone deacetylase 2 (Homo sapiens, UniProt Q92769); test: Inhibition of human HDAC2 using RHKKAc fluorogenic peptide as substrate preincubated for 10 mins followed by substrate addition by fluorescence based analysis
HepG2 = test: Antiproliferative activity against human HepG2 cells assessed as inhibition of cell growth incubated for 72 hrs by luminescence based analysis; type: functional; details: HepG2, 72 h
HCT-116 [3] = test: Effect on HDAC1 protein expression in human HCT-116 cells incubated for 12 hrs by Western blot analysis; type: functional, cell-based; details: dose 0.125-0.5 µM, DDE = dose-dependent effect
MV4-11 = test: Antiproliferative activity against human MV4-11 cells assessed as inhibition of cell growth incubated for 72 hrs by luminescence based analysis; type: functional; details: MV4-11, 72 h
[4] = Toxicity in BALB/c mouse xenografted with human HCT-116 cells assessed as morphological changes in kidney at 12.5 to 25 mg/kg, po qd administered for 21 days by H & E staining based microscopic analysis; type: organism-based; details: in vivo, 504 h, dose 12.5-25 mg/kg, time 21 day
HCT-116 [5] = test: Induction of apoptosis in human HCT-116 cells assessed as early apoptotic cells at 0.25 uM incubated for 24 hrs by AnnexinV-FITC/PI staining based flow cytometry (reference value: 0.93 %); type: functional
HCT-116 [6] = test: Antitumor activity against human HCT-116 cells xenografted in BALB/c mouse assessed as reduction in tumor growth by measuring T/C ratio at 25 mg/kg, po qd administered for 3 weeks and measured every 3 days by vernier caliper analysis; type: functional
HCT-116 [7] = test: Induction of apoptosis in human HCT-116 cells assessed as increase in caspase-8 protein expression incubated for 12 hrs by Western blot analysis; type: functional, cell-based; details: dose 0.125-0.5 µM, DDE = dose-dependent effect
Histone deacetylase 11 = target: T1, Histone deacetylase 11 (Homo sapiens, UniProt Q96DB2); test: Inhibition of human HDAC11 using Boc-Lys(trifluoroacetyl)-AMC as fluorogenic substrate preincubated for 10 mins followed by substrate addition by fluorescence based analysis
T1 sequence (Q96DB2 whole entry): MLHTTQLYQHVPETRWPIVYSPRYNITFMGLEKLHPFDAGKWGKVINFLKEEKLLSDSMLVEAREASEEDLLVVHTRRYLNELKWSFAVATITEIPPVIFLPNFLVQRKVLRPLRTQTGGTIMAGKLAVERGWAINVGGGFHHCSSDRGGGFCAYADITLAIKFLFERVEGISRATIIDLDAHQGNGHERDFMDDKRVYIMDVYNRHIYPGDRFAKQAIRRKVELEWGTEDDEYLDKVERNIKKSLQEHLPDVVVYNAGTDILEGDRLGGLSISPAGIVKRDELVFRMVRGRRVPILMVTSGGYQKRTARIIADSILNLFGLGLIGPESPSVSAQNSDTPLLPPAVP

HCT-116 [8] = test: Induction of apoptosis in human HCT-116 cells assessed as dead cells at 0.125 uM incubated for 24 hrs by AnnexinV-FITC/PI staining based flow cytometry (reference value: 4.62 %); type: functional
[9] = Toxicity in BALB/c mouse xenografted with human HCT-116 cells assessed as morphological changes in heart at 12.5 to 25 mg/kg, po qd administered for 21 days by H & E staining based microscopic analysis; type: organism-based; details: in vivo, 504 h, dose 12.5-25 mg/kg, time 21 day

Sequence of Histone deacetylase 2 (Q92769 whole entry): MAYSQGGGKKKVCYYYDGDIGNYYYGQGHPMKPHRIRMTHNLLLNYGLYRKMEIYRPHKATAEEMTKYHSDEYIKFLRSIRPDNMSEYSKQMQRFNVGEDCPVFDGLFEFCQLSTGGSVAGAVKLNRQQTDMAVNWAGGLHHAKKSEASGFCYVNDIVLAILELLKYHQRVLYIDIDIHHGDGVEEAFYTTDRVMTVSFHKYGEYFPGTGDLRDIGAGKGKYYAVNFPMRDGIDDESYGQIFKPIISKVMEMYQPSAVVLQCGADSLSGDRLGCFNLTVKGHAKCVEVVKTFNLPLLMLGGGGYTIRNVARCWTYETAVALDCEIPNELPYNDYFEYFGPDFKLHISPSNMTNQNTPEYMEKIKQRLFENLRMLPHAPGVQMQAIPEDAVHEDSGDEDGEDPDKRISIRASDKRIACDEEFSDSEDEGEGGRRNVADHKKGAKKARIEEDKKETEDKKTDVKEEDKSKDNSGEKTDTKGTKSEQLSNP
Sequence of Histone deacetylase 1 (Q13547 whole entry): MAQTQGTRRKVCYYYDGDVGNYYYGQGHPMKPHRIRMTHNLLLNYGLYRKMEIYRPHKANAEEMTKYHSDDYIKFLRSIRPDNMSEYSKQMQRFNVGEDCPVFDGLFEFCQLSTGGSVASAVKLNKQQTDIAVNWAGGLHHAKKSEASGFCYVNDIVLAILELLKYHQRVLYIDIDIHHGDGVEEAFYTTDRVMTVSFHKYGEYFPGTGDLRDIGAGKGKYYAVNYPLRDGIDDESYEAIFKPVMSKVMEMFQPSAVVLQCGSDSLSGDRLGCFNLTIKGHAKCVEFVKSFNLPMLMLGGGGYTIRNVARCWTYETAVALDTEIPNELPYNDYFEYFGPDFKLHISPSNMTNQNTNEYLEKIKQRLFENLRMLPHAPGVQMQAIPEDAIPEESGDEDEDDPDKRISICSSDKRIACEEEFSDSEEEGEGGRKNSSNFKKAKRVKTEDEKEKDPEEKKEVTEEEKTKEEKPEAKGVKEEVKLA

In the case of COc1ccccc1CN1C(=O)C2=C(CCN(Cc3ccc(C(=O)Nc4ccccc4N)cc3)C2)N2CCN=C12, the inhibition (Histone deacetylase 1) is reported as “Active”, the Activity (HCT-116 [1]) is reported as “Active” and the Activity (HCT-116 [2]) is reported as “Dde”. For the same compound, the IC50 (Histone deacetylase 2) was 0.346 µM, the IC50 (HepG2) was 2.67 µM and the Activity (HCT-116 [3]) was “Dde”. For the same compound, the IC50 (MV4-11) was 0.563 µM, the Activity [4] was “Non-Toxic” and the Activity (HCT-116 [5]) was 1.18%. For the same compound, the T/C (HCT-116 [6]) was 0.33, the Activity (HCT-116 [7]) was “Dde” and the IC50 (Histone deacetylase 11) was over 10 µM. For the same compound, the Activity (HCT-116 [8]) was 6.33% and the Activity [9] was “Non-Toxic”.
